Source: patent publication US11071731B2, “Allosteric modulators of the mu opioid receptor” (Chiromics, LLC, priority 2017, dated 2021)

Tests used:
[1] = target: T1, mu opioid receptor (MOR) (Homo sapiens, UniProt P35372); assay: PathHunter β-arrestin recruitment assay, PAM mode with EC20 endomorphin-1; assay type: cell-based; conditions: for EC50: read-out: β-arr. EC50
Procedure, shortened: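 β-Arrestin recruitment to the receptor was tracked by chemiluminescent β-galactosidase activity from complementing fragments (ED on receptor, EA on β-arrestin). Per-compound outputs were EC50 and percent maximal response.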

[2] = target: T1, mu opioid receptor (MOR); assay: Hit Hunter cAMP signaling assay (adenylyl cyclase inhibition), PAM mode with EC20 endomorphin-1; assay type: cell-based
[3] = maximal response for β-arrestin recruitment
[4] = cAMP EC50, adenylyl cyclase inhibition
[5] = maximal response for adenylyl cyclase inhibition
[6] = maximal response, β-arrestin recruitment
[7] = adenylyl cyclase inhibition, read-out: cAMP EC50
[8] = maximal response, adenylyl cyclase inhibition

T1 sequence (P35372 whole entry, the tested form may be a part): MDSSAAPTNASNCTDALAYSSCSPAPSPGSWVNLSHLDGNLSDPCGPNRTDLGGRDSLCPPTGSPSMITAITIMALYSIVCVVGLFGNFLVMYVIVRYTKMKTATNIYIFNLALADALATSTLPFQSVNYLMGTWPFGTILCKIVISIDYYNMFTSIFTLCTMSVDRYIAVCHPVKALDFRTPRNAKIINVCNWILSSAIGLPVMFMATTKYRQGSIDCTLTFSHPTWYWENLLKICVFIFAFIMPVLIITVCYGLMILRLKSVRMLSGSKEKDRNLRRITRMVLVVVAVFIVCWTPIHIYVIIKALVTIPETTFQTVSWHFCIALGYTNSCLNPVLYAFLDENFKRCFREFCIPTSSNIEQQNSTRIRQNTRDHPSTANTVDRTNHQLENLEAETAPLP

Structure (SMILES): Fc1c(C2CCCCN2c2ccnc(Cl)n2)cccc1C(F)(F)F (stereo not drawn) [compound 365]
- β-arr Max. Resp. [1, 3]: D (D represents a maximal response of < 40%)
- EC50 ([1]; β-arrestin recruitment): < 0.7 µM
- EC50 [2, 4]: < 0.7 µM
- cAMP Max. Resp. [2, 5]: D (D represents a maximal response of < 40%)

Structure (SMILES): Fc1cnc(Cl)nc1N1CCCCC1c1cncc(C(F)(F)F)n1 (stereo not drawn) [compound 274]
- β-arr Max. Resp. [1, 3]: F (F represents a maximal response of > 60%)
- EC50 ([1]; β-arrestin recruitment): > 2.1 µM
- EC50 [2, 4]: 0.7 to 2.1 µM
- cAMP Max. Resp. [2, 5]: D (D represents a maximal response of < 40%)

Structure (SMILES): Fc1cnc(Cl)nc1C1CCCCN1c1nc(Cl)ncc1F (stereo not drawn) [compound 357]
- β-arr Max. Resp. [1, 3]: D (D represents a maximal response of < 40%)
- EC50 ([1]; β-arrestin recruitment): < 0.7 µM
- EC50 [2, 4]: < 0.7 µM
- cAMP Max. Resp. [2, 5]: D (D represents a maximal response of < 40%)

Structure (SMILES): Fc1cnc(Cl)nc1N1CC(C(F)(F)F)CC1c1cccc(C(F)(F)F)c1 (stereo not drawn) [compound 473]
- β-arr Max. Resp. [1, 6]: E (E represents a maximal response of 40-60%)
- EC50 ([1]; β-arrestin recruitment): > 2.1 µM
- EC50 [2, 7]: > 2.1 µM
- cAMP Max. Resp. [2, 8]: D (D represents a maximal response of < 40%)

Structure (SMILES): Fc1c(N2CCCCC2c2cccc(C(F)(F)F)c2)ccnc1Cl (stereo not drawn) [compound 402]
- β-arr Max. Resp. [1, 3]: D (D represents a maximal response of < 40%)
- EC50 ([1]; β-arrestin recruitment): < 0.7 µM
- EC50 [2, 4]: < 0.7 µM
- cAMP Max. Resp. [2, 5]: D (D represents a maximal response of < 40%)

Structure (SMILES): O=S(=O)(Cc1ccccc1)N1C2CCC(C2)C1c1ccc(F)c(Br)c1 (stereo not drawn) [Compound 182]
- β-arr Max. Resp. [1, 3]: E (E represents a maximal response of 40-60%)
- EC50 ([1]; β-arrestin recruitment): > 2.1 µM
- EC50 [2, 7]: > 2.1 µM
- cAMP Max. Resp. [2, 5]: D (D represents a maximal response of < 40%)

Structure (SMILES): Fc1ccc(C2CSCCN2c2nc(Cl)ncc2F)cc1Cl (stereo not drawn) [Compound 460]
- β-arr Max. Resp. [1, 6]: F (F represents a maximal response of > 60%)
- EC50 ([1]; β-arrestin recruitment): > 2.1 µM
- EC50 [2, 7]: > 2.1 µM
- cAMP Max. Resp. [2, 8]: F (F represents a maximal response of > 60%)

Structure (SMILES): Fc1cnc(Cl)nc1N1CCCCC1c1cncnc1 (stereo not drawn) [compound 378]
- β-arr Max. Resp. [1, 3]: D (D represents a maximal response of < 40%)
- EC50 ([1]; β-arrestin recruitment): < 0.7 µM
- EC50 [2, 4]: < 0.7 µM
- cAMP Max. Resp. [2, 5]: D (D represents a maximal response of < 40%)

Structure (SMILES): CNc1cccc(C2CCCCN2Cc2cc(Cl)ccc2F)n1 (stereo not drawn) [compound 168]
- β-arr Max. Resp. [1, 3]: F (F represents a maximal response of > 60%)
- EC50 ([1]; β-arrestin recruitment): > 2.1 µM
- EC50 [2, 4]: > 2.1 µM
- cAMP Max. Resp. [2, 5]: F (F represents a maximal response of > 60%)

Structure (SMILES): O=S(=O)(c1ccc(Cl)cc1)N1CCCCC1c1ccc(F)c(Br)c1 (single isomer, unassigned) [compound 446]
- β-arr Max. Resp. [1, 6]: F (F represents a maximal response of > 60%)
- EC50 ([1]; β-arrestin recruitment): > 2.1 µM
- EC50 [2, 7]: > 2.1 µM
- cAMP Max. Resp. [2, 8]: E (E represents a maximal response of 40-60%)

Structure (SMILES): [2H]C1(c2ccc(F)c(Br)c2)C(F)CCCN1c1nc(Cl)ncc1F (stereo not drawn) [compound 214]
- β-arr Max. Resp. [1, 3]: F (F represents a maximal response of > 60%)
- cAMP Max. Resp. [2, 5]: E (E represents a maximal response of 40-60%)

Structure (SMILES): Fc1cnc(Cl)nc1N1CCCCC1c1ccc(Br)c(C(F)(F)F)c1 (stereo not drawn) [compound 287]
- β-arr Max. Resp. [1, 3]: F (F represents a maximal response of > 60%)
- EC50 ([1]; β-arrestin recruitment): 0.7 to 2.1 µM
- EC50 [2, 4]: < 0.7 µM
- cAMP Max. Resp. [2, 5]: D (D represents a maximal response of < 40%)

Structure (SMILES): CCC1CCCN(c2nc(Cl)ncc2F)C1c1ccc(OC)c(Br)c1 (stereo not drawn) [compound 248]
- β-arr Max. Resp. [1, 3]: F (F represents a maximal response of > 60%)
- EC50 ([1]; β-arrestin recruitment): > 2.1 µM
- EC50 [2, 7]: > 2.1 µM
- cAMP Max. Resp. [2, 5]: E (E represents a maximal response of 40-60%)

Structure (SMILES): O=S(=O)(Cc1ccccc1Cl)N1C2CCC(C2)C1c1ccc(F)c(Br)c1 (stereo not drawn) [Compound 183]
- β-arr Max. Resp. [1, 3]: E (E represents a maximal response of 40-60%)
- EC50 ([1]; β-arrestin recruitment): > 2.1 µM
- EC50 [2, 7]: > 2.1 µM
- cAMP Max. Resp. [2, 5]: D (D represents a maximal response of < 40%)
